Test results as given in PMC11814485, “Screening of homing and tissue-penetrating peptides by microdialysis and in vivo phage display” (Life Science Alliance, 2025).

Assays:
day 7 skin wound = assay: In vivo playoff of custom-made phage library with microdialysis recovery and HTS in rat skin wound model; settings: for Liver Count: HTS reads in liver after 1 h circulation and perfusion; for Wound without probe Count: HTS reads in wound tissue after 1 h circulation and perfusion; for Normal skin microdialysate Count / Wound microdialysate Count: HTS reads; for Normal skin microdialysate Count: probe under normal skin; for Normal skin microdialysate Count / Wound microdialysate Count / Wound microdialysate %: dialysate collected 1 h; for Wound microdialysate Count / Wound microdialysate %: rat; for Wound microdialysate Count: i.v. tail vein, 3-MDa probe under day 7 wound; for Liver %: share of HTS reads in liver after 1 h circulation and perfusion; for Wound without probe %: share of HTS reads in wound tissue after 1 h circulation and perfusion; for Wound microdialysate %: share of HTS reads, i.v.
Protocol: We next tested the applicability of the microdialysis-based system for extravascular phage recovery in the rat wound model. In the initial proof-of-concept studies, we used an in vivo “playoff” approach that allows parallel auditioning of the performance of peptide phages in low-complexity mixtures ([Pleiko et al, 2021]). Wound-bearing rats were dosed with a pool of phages displaying peptides known to home to angiogenic vessels and penetrate tissues, CAR (amino acid sequence CARSKNKDC) and iRGD (CRGDKGPDC). The CAR peptide uses a heparan sulfate proteoglycan (syndecan-4)–dependent pathway for the wound homing and penetration ([Järvinen & Ruoslahti, 2007], [2010]; [Maldonado et al, 2023]), whereas iRGD first homes to αv integrins in angiogenic vasculature followed by proteolytic cleavage of the peptide and binging to neuropilin-1, which activates a trans-tissue transport pathway, the CendR pathway ([Sugahara et al, 2009], [2010]; [Teesalu et al, 2009]). […] Peptides lacking tissue-penetrating properties were included as controls. The CRK (CRKDKC) peptide homes to angiogenic blood vessels, but remains bound to the blood vessels ([Järvinen & Ruoslahti, 2007]; [Agemy et al, 2010]). The test pool also included peptide phage clones identified during an in vivo phage display screen for peptides homing to skin wounds but not selected for further analysis at that time ([Järvinen & Ruoslahti, 2007]). As negative controls, we included phages from a naïve peptide phage library that display random peptides.
Microdialysis probes with 3-MDa cutoff were implanted under the center of a day 7 skin wound (peak of angiogenesis) in rats, or under normal skin (Fig S2). Care was taken not to rupture blood vessels during the probe insertion, and a proper probe location was confirmed at the end of the experiment. After insertion, the microdialysis device was run for 45 min to allow the local flow inside the catheter to be established (manufacturer’s recommendation) ([Joukhadar & Müller, 2005]; [Chaurasia et al, 2007]), followed by intravenous injection of the phage cocktail, and sampling of wound and control dialysates for 60 min. Subsequently, the animals were perfused to remove free phages, and wounds and control organs were collected for further analysis. […] No phages (including CAR and iRGD phages) were detected in the dialysates placed in the intact normal skin (Table 1).
The custom-made phage library for the in vivo validation was cloned on T7 415-1 backbone, grown in BL21 E. coli strain, and filter-sterilized. The phages were either cloned as described previously or picked randomly from a phage library ([Järvinen & Ruoslahti, 2007]; [Teesalu et al, 2009]; [Pemmari et al, 2020a]). Each phage clone was sequenced. The custom-made library was made by mixing an equal amount of each phage (titer 5 × 10^9).
(§1) For the in vivo microdialysis, CMA 402 Syringe Pump with Hamilton syringes was used to push and the Harvard P70 peristaltic pump (Harvard Apparatus) to pull the CMA perfusion fluid (CMA Microdialysis AB) and dialysate. Each of the CMA 402 two outputs was connected to the inlet spike of the CMA 12 custom-made 3-MDa probe (CMA Microdialysis AB) via CMA FEP tubing (CMA Microdialysis AB), and the outlet spike of the CMA 12 probe was further connected to Harvard P70 peristaltic pump and further to CMA Probe Shaft Clip (CMA Microdialysis AB) via CMA connector tubing (CMA Microdialysis AB). From the CMA Probe Shaft Clip, the dialysate was pumped into CMA sample tubes (CMA Microdialysis AB). Harvard 0.19-mm-diameter tubing (Harvard Apparatus) and Harvard 3 collar 1.52-mm tubing (Harvard Apparatus) were used with the Harvard P70 peristaltic pump. In addition, CMA tubing adaptors (CMA Microdialysis AB) were used for connecting tubes to syringes and probes. The system was flushed with 70% ethanol before any use.
Male Wistar rats were used for the in vivo validation experiment and the library screen. The rats were 27 wk old and weighed 490 g. […]

CHO-K cells = assay: Peptide internalization in vitro, confocal imaging, CHO-K cells; type: cell-based, Chinese hamster; settings: FAM-labeled peptide 20 μM, 3 h, 37°C, confocal fluorescence imaging, representative of three experiments
Protocol: Figure 1. Microdialysis-captured peptides penetrate the cell membrane. […] CHO-K cells were grown on chamber slides. […] The scale bar is 20 μm. Images are representative of three individual experiments.
Plain growth medium was used as a negative control.

day 7 skin wounds = assay: In vivo phage display screen of naive CX7C T7 library using microdialysis and HTS; parameters: species or system rat; settings: for Total counts / First hour (counts) / Second hour (counts): wound microdialysate; for Total counts: first 2 h; for First hour (counts): first hour after library injection, rat 7-d-old wound; for First hour (counts) / Second hour (counts): Ion Torrent HTS; for Second hour (counts): second hour after library injection
Excerpt: We next adopted microdialysis-based biopanning to identify new wound-penetrating peptides. We used a CX7^trinucC peptide T7 phage library (diversity 3.9 × 10^8) in which random amino acids are encoded by equally represented trinucleotides to prevent codon bias ([Pleiko et al, 2021]). The library was cloned into the genome of the T7 bacteriophage engineered for longer circulation half-life and reduced liver uptake ([Hodyra-Stefaniak et al, 2019]). For biopanning, 3.9 × 10^10 phages (∼100 copies of each phage clone) displaying the C7X^trinucC library were injected in the tail vein of rats with day 7 skin wounds. Microdialysates were collected from probes placed in wounds or normal skin (Table S1). Most of the phage recovery at the microdialysis probe happened during the first 2 h after library dosing. The wound dialysates yielded almost all phages introduced into the two microdialysis probes, only one phage clone was recovered from normal skin dialysate (Table S1). We observed that most of the peptide phage clones appeared in the microdialysate during the first 2 h after phage dosing (Table S1). To obtain representative tissue biodistribution of phage clones in relation to dialysates, the skin wound–bearing rats with no inserted dialysis probes were dosed with the naïve CX7^trinucC peptide library, followed by 30-min circulation, perfusion, collection of organs, and analysis of peptide landscapes. The two dialysates collected during the first 2 h were subjected to HTS (Table S2). Whole tissue samples from the wound with and without the probe (1 + 5 wounds) at 30 min and 5 h, as well as control samples from 14 different tissues (2 × 14) and from normal skin (1 x with and 2 x without probe), and two serum samples at the time of euthanasia (30 min and 5 h after the library injection) were subjected to HTS. […] However, the wound microdialysates contained 13 enriched peptide sequences (Table 2). […] A BLAST analysis on candidate peptide sequences was used to scan for sequence homologies with proteins related to angiogenesis, endocytosis, and wound healing (Table S3).
The phage library used in the in vivo screen with the microdialysis probe was in the 10-3b T7 backbone (5–15 peptide copies per phage), grown in BLT5403 E. coli strain, CsCl-purified, dialyzed in PBS, and filter-sterilized. The library was constructed via trinucleotide synthesis to prevent bias in the amount of different amino acids ([Kayushin et al, 1996]). The diversity of the library was 1 × 10^9 and the titer 5 × 10^10 per ml.
as §1
Male Wistar rats were used for the in vivo validation experiment and the library screen. The rats were 27 wk old and weighed 490 g. Two full-thickness circular wounds were created on a shaved and disinfected skin with a 12-mm-diameter biopsy punch and scissors under sevoflurane anesthesia (Sevoflurane Baxter, Baxter SA) and carprofen analgesia ([…]; Norocarp, Norbrook Laboratories). […]

CAELNDGLC [T7 phage clone of the custom-made library]
Liver Count (day 7 skin wound): 1,851 | Wound without probe Count (day 7 skin wound): 1,082 | Normal skin microdialysate Count (day 7 skin wound): 0 | Wound microdialysate Count (day 7 skin wound): 0 | Liver % (day 7 skin wound): 0.70% | Wound without probe % (day 7 skin wound): 4.98% | Wound microdialysate % (day 7 skin wound): 0%

CARSKNKDC [CARSKNKDC (CAR), T7 phage clone displaying known wound-homing, tissue-penetrating peptide CAR]
Liver Count (day 7 skin wound): 29,894 | Wound without probe Count (day 7 skin wound): 1,614 | Normal skin microdialysate Count (day 7 skin wound): 0 | Wound microdialysate Count (day 7 skin wound): 17,713 | Liver % (day 7 skin wound): 11.34% | Wound without probe % (day 7 skin wound): 7.43% | Wound microdialysate % (day 7 skin wound): 94.74%

CARSKNKDC [FAM-labeled synthetic CAR peptide (…), known cell- and tissue-penetrating homing peptide, reference compound]
cellular uptake in CHO-K cells (CHO-K cells): accumulate in the CHO-K cells

CDDYQQISC
Total counts (day 7 skin wounds): 21 counts | First hour (counts) (day 7 skin wounds): 10 counts | Second hour (counts) (day 7 skin wounds): 11 counts

CERESTKIC [T7 phage clone of the custom-made library]
Liver Count (day 7 skin wound): 93,283 | Wound without probe Count (day 7 skin wound): 3,133 | Normal skin microdialysate Count (day 7 skin wound): 0 | Wound microdialysate Count (day 7 skin wound): 0 | Liver % (day 7 skin wound): 35.39% | Wound without probe % (day 7 skin wound): 14.42% | Wound microdialysate % (day 7 skin wound): 0%

CFCQLMYQC
Total counts (day 7 skin wounds): 13 counts | First hour (counts) (day 7 skin wounds): 8 counts | Second hour (counts) (day 7 skin wounds): 5 counts

CKKNEINNC
detection in skin wound tissue samples (day 7 skin wounds; HTS of whole wound tissue samples): found in one skin wound sample | Total counts (day 7 skin wounds): 16 counts | First hour (counts) (day 7 skin wounds): 6 counts | Second hour (counts) (day 7 skin wounds): 10 counts

CKMLYEYHC
Total counts (day 7 skin wounds): 18 counts | First hour (counts) (day 7 skin wounds): 1 counts | Second hour (counts) (day 7 skin wounds): 17 counts

CKSVKNREC [T7 phage clone of the custom-made library]
Liver Count (day 7 skin wound): 108,554 | Wound without probe Count (day 7 skin wound): 14,429 | Normal skin microdialysate Count (day 7 skin wound): 2,473 | Wound microdialysate Count (day 7 skin wound): 0 | Liver % (day 7 skin wound): 41.18% | Wound without probe % (day 7 skin wound): 66.39% | Wound microdialysate % (day 7 skin wound): 0%

CLLGKNNSC [T7 phage clone of the custom-made library]
Liver Count (day 7 skin wound): 785 | Wound without probe Count (day 7 skin wound): 0 | Normal skin microdialysate Count (day 7 skin wound): 0 | Wound microdialysate Count (day 7 skin wound): 0 | Liver % (day 7 skin wound): 0.30% | Wound without probe % (day 7 skin wound): 0% | Wound microdialysate % (day 7 skin wound): 0%

CLLIYNWSC
Total counts (day 7 skin wounds): 17 counts | First hour (counts) (day 7 skin wounds): 14 counts | Second hour (counts) (day 7 skin wounds): 3 counts

CLSQTYRIC
Total counts (day 7 skin wounds): 21 counts | First hour (counts) (day 7 skin wounds): 19 counts | Second hour (counts) (day 7 skin wounds): 2 counts

CLTVLSEQC
Total counts (day 7 skin wounds): 15 counts | First hour (counts) (day 7 skin wounds): 8 counts | Second hour (counts) (day 7 skin wounds): 7 counts

CNGSALPVC [T7 phage clone of the custom-made library]
Liver Count (day 7 skin wound): 3,300 | Wound without probe Count (day 7 skin wound): 0 | Normal skin microdialysate Count (day 7 skin wound): 0 | Wound microdialysate Count (day 7 skin wound): 0 | Liver % (day 7 skin wound): 1.25% | Wound without probe % (day 7 skin wound): 0% | Wound microdialysate % (day 7 skin wound): 0%

CNYLVEKNC
Total counts (day 7 skin wounds): 23 counts | First hour (counts) (day 7 skin wounds): 14 counts | Second hour (counts) (day 7 skin wounds): 9 counts

CPKKHHLDC
Total counts (day 7 skin wounds): 42 counts | First hour (counts) (day 7 skin wounds): 19 counts | Second hour (counts) (day 7 skin wounds): 23 counts

CRGDKGPDC [CRGDKGPDC (iRGD), T7 phage clone displaying tissue-penetrating homing peptide iRGD]
Liver Count (day 7 skin wound): 8,709 | Wound without probe Count (day 7 skin wound): 1,172 | Normal skin microdialysate Count (day 7 skin wound): 0 | Wound microdialysate Count (day 7 skin wound): 984 | Liver % (day 7 skin wound): 3.30% | Wound without probe % (day 7 skin wound): 5.39% | Wound microdialysate % (day 7 skin wound): 5.26%

CRKDKC [CRKDKC (CRK), T7 phage clone displaying CRK peptide, homes to angiogenic vessels, lacks tissue penetration]
Liver Count (day 7 skin wound): 17,235 | Wound without probe Count (day 7 skin wound): 303 | Normal skin microdialysate Count (day 7 skin wound): 0 | Wound microdialysate Count (day 7 skin wound): 0 | Liver % (day 7 skin wound): 6.54% | Wound without probe % (day 7 skin wound): 1.39% | Wound microdialysate % (day 7 skin wound): 0%

CRMKFYSEYC
Total counts (day 7 skin wounds): 11 counts | First hour (counts) (day 7 skin wounds): 2 counts | Second hour (counts) (day 7 skin wounds): 9 counts

CYHDTYPNC
Total counts (day 7 skin wounds): 28 counts | First hour (counts) (day 7 skin wounds): 14 counts | Second hour (counts) (day 7 skin wounds): 14 counts

CYWEDKNLC
Total counts (day 7 skin wounds): 15 counts | First hour (counts) (day 7 skin wounds): 6 counts | Second hour (counts) (day 7 skin wounds): 9 counts
